Here are results for 4 compounds from US8765696B2, “Steroid compound” (Mikasa Seiyaku Co., Ltd., priority 2009, dated 2014).

In data set [1] the test system is croton oil-induced ear edema. Briefly: Test for croton oil-induced ear edema. The format is in vivo. As to conditions: rat right auricle; for Edema suppression rate of 6 hours after administration of inflammatory agent (%): 6 hours after croton oil; for Edema suppression rate of 24 hours after administration of inflammatory agent (%): 24 hours after croton oil. The procedure:
Croton oil ear edema test, which is a representative model for dermatitis, was used to study the pharmacological effect of compounds of the present invention.
Five individuals/group of rats of 5 weeks old (body weight, 128 g to 169 g) were used. One day before the test, the thickness of the right ear was measured under ether anesthesia using a dial thickness gauge, to obtain the Pre value. On the day of the test, 20 mg each of the ointments to be tested, which had been prepared to have various concentrations in white vaseline, was applied to the right auricle (both sides) of each rat, and a collar was then placed around the neck of the rat to prevent contacting/scratching and removal of the drug. Two hours later, the ointment was wiped off under ether anesthesia using absorbent cotton, and 0.1 mL of 5% croton oil (croton oil:ether:pyridine:distilled water=1:14:4:1) solution was applied dropwise to the both sides of the auricle while drying the solution with a drier (air blow), to induce ear edema. Six and 24 hours after the induction of the edema, the thickness of the right auricle was measured under ether anesthesia, and the edema rate and the edema suppression rate were calculated according to the equations below, which suppression rate is shown in Table 1.

Data set [2] relates to croton oil-induced granuloma. Briefly: Test for croton oil-induced granuloma (air pouch exudate and thymus weight). The format is in vivo, rat. Conditions: male Wistar rats, 7 days, vs control group. The source says:
Using the croton oil granuloma test, which is a test method with which the local anti-inflammatory action and the systemic side effect can be evaluated at the same time, the pharmacological effect and the systemic side effect of the compounds of the present invention were studied.
Five individuals/group of male Wistar rats having body weights of 180 to 225 g were used, and hair on the back of these rats was shaved with a clipper under ether anesthesia, followed by preparing an air pouch by subcutaneous injection of 20 mL of air at the back. On the next day, 1 mL of cottonseed oil containing 1% croton oil was administered to the pouch. Each test drug was suspended in the croton oil-containing cottonseed oil before administration. Seven days later, blood was collected from abdominal aorta under ether anesthesia, and exudate in the pouch was collected and its fluid amount was measured. Further, the thymus was removed, and its weight was measured. The weight of the exudate and the weight of the thymus are shown in Table 2 as the suppression rate and the atrophy rate (%) with respect to those of the control group.

The test system of data set [3] is DNCB-induced dermatitis. Briefly: Test for DNCB-induced dermatitis (skin thickness and thymus weight). The format is in vivo. Conditions: rat, 0.1 mL once per day, 6 times. How it is done:
The DNCB-induced dermatitis test, which is a representative model for allergic dermatitis, was used to study the pharmacological effect of the compound of the present invention.
Abdominal hair of rats (body weight, 205 to 230 g) under isoflurane anesthesia was shaved with an electric clipper and a shaver, and a test region having a size of 3 cm×4 cm was prepared, followed by applying 0.4 mL of 1% DNCB/acetone solution to the inside of the region, to carry out sensitization. Two weeks later, 1 mL of 1% DNCB/acetone solution was applied to the inside of the region to cause induction, and 4 days thereafter, reinduction was carried out. Two days after the reinduction, the skin was removed from the test region, and 5 predetermined positions were punched out using a punch having a diameter of 12 mm, followed by measuring the skin thickness using a dial thickness gauge. Further, to investigate the influence of side effects, the thymus was removed to measure its weight. Application of the test drug was carried out 4 hours after the first dermatitis induction such that 0.1 mL of the ointment is uniformly applied over the test region. Thereafter, the test drug was applied once per day, a total of 6 times until the next day of the reinduction (the day before removal of the skin). The skin thickness and the weight of the thymus are shown in Table 3 as the suppression rate and the atrophy rate (%) relative to those of the control group.

The nature of data set [4]: Amount of production of active metabolite in inflamed skin and non-inflamed skin. The data set is classed as in vivo. As to conditions: hairless rat, 0.1 mL of 0.1% ointment, LC/MS/MS, Mean ± S.D. The source says: The compounds of the present invention have the advantageous feature that they show the pharmacological effect after being metabolized to an active metabolite (des-ciclesonide) at the site of inflammation. The amount of the active metabolite produced when the compound of the present invention was applied to inflamed skin (skin whose dermatitis was induced by DNCB) or non-inflamed skin (normal skin) was compared.
Using, as the test region, an area of 3 cm×4 cm on the abdomen of a hairless rat of 9 weeks old, 0.4 mL of 1% DNCB/acetone solution was applied to the inside of the region under isoflurane anesthesia, to carry out sensitization. Two weeks later, 1 mL of 1% DNCB/acetone solution was applied to the inside of the region to cause induction, and, 48 hours thereafter, 0.1 mL of a test drug (0.1% ointment) was uniformly applied to the test region. The skin was removed 48 hours after the beginning of the application of the test drug. On the other hand, the test drug was also applied to a normal animal which had not been subjected to the sensitization and the induction, and the skin was removed 48 hours later. […] After centrifugation (10,000 g, 4° C., 5 min.), the centrifugal supernatant was subjected to quantification of the amount of the active metabolite (des-ciclesonide) using LC/MS/MS. […]

Setting [5] is: drug concentration 0.01% ointment.
Setting [6] is: drug concentration 0.10% ointment.

Regarding `CC12C=CC(=O)C=C1CCC1C2C(O)CC2(C)C1CC1OC(C3CCCCC3)OC12C(=O)COC1OC(COC(=O)c2ccco2)C(OC(=O)c2ccco2)C(OC(=O)c2ccco2)C1OC(=O)c1ccco1` (centres unmarked) [Compound 8], the “Edema suppression rate of 6 hours after administration of inflammatory agent (%)” value (shortened to “Edema suppression rate of 6 hours … (%)”) in data set [1] (ointment concentration 0.001%) is 24.2%; in data set [1] (ointment concentration 0.01%), 36.0%; in data set [1] (ointment concentration 0.1%), 33.4%. For the same compound, the “Edema suppression rate of 24 hours after administration of inflammatory agent (%)” value (“Edema suppression rate of 24 hours … (%)” for short) in data set [1] (ointment concentration 0.001%) is given as 25.9%; in data set [1] (ointment concentration 0.01%) it was 40.1%; in data set [1] (ointment concentration 0.1%) it was 49.6%. Also, the “Rate of exudates suppression (pharmacological effects)” value in data set [2] (dose 0.001 mg/rat into pouch) is given as 19.1%; in data set [2] (dose 0.01 mg/rat into pouch), 42.1%; in data set [2] (dose 0.1 mg/rat into pouch) it was 78.0%; in data set [2] (dose 1 mg/rat into pouch), 95.0%. Besides, the “Rate of thymus atrophy (systemic side effects)” value in data set [2] (dose 0.001 mg/rat into pouch) came out at 0.0%; in data set [2] (dose 0.01 mg/rat into pouch) it was 0.0%; in data set [2] (dose 0.1 mg/rat into pouch), 0.0%; in data set [2] (dose 1 mg/rat into pouch) it was 0.5%.

Regarding `CC(C)C(=O)OCC(=O)[C@@]12O[C@H](C3CCCCC3)O[C@@H]1C[C@H]1[C@@H]3CCC4=CC(=O)C=C[C@]4(C)[C@H]3[C@@H](O)C[C@@]12C` [Ciclesonide, ciclesonide, reference compound], the “Edema suppression rate of 6 hours … (%)” value in data set [1] (ointment concentration 0.001%) was determined as 9.1%; in data set [1] (ointment concentration 0.01%), 30.3%; in data set [1] (ointment concentration 0.1%), 49.4%. Also, the results for the “Edema suppression rate of 24 hours … (%)” value in data set [1] (ointment concentration 0.001%), in data set [1] (ointment concentration 0.01%) and in data set [1] (ointment concentration 0.1%) were 9.4%, 24.5% and 43.5%, respectively. Besides, the “Rate of exudates suppression (pharmacological effects)” value in data set [2] (dose 0.001 mg/rat into pouch) worked out at 62.8%; in data set [2] (dose 0.01 mg/rat into pouch), 93.5%; in data set [2] (dose 0.1 mg/rat into pouch) it was 93.0%; in data set [2] (dose 1 mg/rat into pouch) it was 92.6%. Further, the “Rate of thymus atrophy (systemic side effects)” value in data set [2] (dose 0.001 mg/rat into pouch) is 6.0%; in data set [2] (dose 0.01 mg/rat into pouch) it was 13.0%; in data set [2] (dose 0.1 mg/rat into pouch) it was 23.6%; in data set [2] (dose 1 mg/rat into pouch), 84.4%.

As to `CC(=O)NC1C(OCC(=O)C23OC(C4CCCCC4)OC2CC2C4CCC5=CC(=O)C=CC5(C)C4C(O)CC23C)OC(COC(C)=O)C(OC(C)=O)C1OC(C)=O` (centres unmarked) [Compound 11], the “Edema suppression rate of 6 hours … (%)” value was found to be 24.5% in data set [1] (ointment concentration 0.001%), 19.0% in data set [1] (ointment concentration 0.01%) and 33.6% in data set [1] (ointment concentration 0.1%). Also, the entries for the “Edema suppression rate of 24 hours … (%)” value in data set [1] (ointment concentration 0.001%), in data set [1] (ointment concentration 0.01%) and in data set [1] (ointment concentration 0.1%) were 39.4%, 26.5% and 48.0%, respectively. In addition, the “Rate of exudates suppression (pharmacological effects)” value in data set [2] (dose 0.001 mg/rat into pouch) came to 13.1%; in data set [2] (dose 0.01 mg/rat into pouch), 21.2%; in data set [2] (dose 0.1 mg/rat into pouch), 66.0%; in data set [2] (dose 1 mg/rat into pouch) it was 93.4%. In addition, the “Rate of thymus atrophy (systemic side effects)” value in data set [2] (dose 0.001 mg/rat into pouch) is reported as 3.9%; in data set [2] (dose 0.01 mg/rat into pouch) it was 7.9%; in data set [2] (dose 0.1 mg/rat into pouch), 10.8%; in data set [2] (dose 1 mg/rat into pouch) it was 16.0%.

Take `CC(=O)OCC1OC(OCC(=O)C23OC(C4CCCCC4)OC2CC2C4CCC5=CC(=O)C=CC5(C)C4C(O)CC23C)C(OC(C)=O)C(OC(C)=O)C1OC(C)=O` (centres unmarked) [Compound 3]: the entries for the “Edema suppression rate of 6 hours … (%)” value in data set [1] (ointment concentration 0.001%), in data set [1] (ointment concentration 0.01%) and in data set [1] (ointment concentration 0.1%) were 50.3%, 46.1% and 51.7%, respectively. Moreover, the “Edema suppression rate of 24 hours … (%)” value was determined as 48.1% in data set [1] (ointment concentration 0.001%), 58.0% in data set [1] (ointment concentration 0.01%) and 56.0% in data set [1] (ointment concentration 0.1%). Also, the “Rate of exudates suppression (pharmacological effects)” value worked out at 7.9% in data set [2] (dose 0.001 mg/rat into pouch), 41.6% in data set [2] (dose 0.01 mg/rat into pouch), 92.7% in data set [2] (dose 0.1 mg/rat into pouch) and 96.3% in data set [2] (dose 1 mg/rat into pouch). In addition, the “Rate of thymus atrophy (systemic side effects)” value came to 0.0% in data set [2] (dose 0.001 mg/rat into pouch), 0.0% in data set [2] (dose 0.01 mg/rat into pouch), 0.0% in data set [2] (dose 0.1 mg/rat into pouch) and 2.4% in data set [2] (dose 1 mg/rat into pouch). The “Rate of Skin thickness suppression (pharmacological effects) (%)” value in data set [3] (setting [5]) was 46.1%; in data set [3] (setting [6]), 60.5%. In addition, the “Rate of thymus atrophy (systemic side effects) (%)” value in data set [3] (setting [5]) and in data set [3] (setting [6]) was 0.0% throughout. The entries for the “Drug concentration of active metabolite (Compound C), 48 hours after test drug were applied once” value in data set [4] (DNCB-induced dermatitis skin) and in data set [4] (non-inflamed skin (normal skin)) were 1272 ± 276 (ng/g) and 119 ± 48 (ng/g), respectively.
